Laboratory results taken from paper PMC4310094, “FXR antagonism of NSAIDs contributes to drug-induced liver injury identified by systems pharmacology approach” (Scientific Reports, 2015).

What was measured:
caspase9 = experiment: Western blot of caspase9 in HepG2 cells; type: cell-based; conditions: Figure 6B
Method: (§1) In subsequent experiments, we further investigated whether NSAIDs could induce STAT3 activation and suppress the expression of caspase9. […] The phosphorylated STAT3 was determined by western blot analysis. […] For STAT3 phosphorylation and caspase9 expression analysis, HepG2 cells were seeded in 6-well plates and then treated with varied compounds in serum-free DMEM media. After 24 h incubation, cells were washed twice with ice-cold phosphate buffered saline (PBS) and lysed in RIPA buffer including 5 mM NaF, 1 mM PMSF, 2 mM NaVO4 and protease inhibitor cocktail. Lysates were then centrifuged at 10,000 rpm for 10 min at 4°and the protein concentrations were determined by BCA assay. Whole cell extracts was resolved on 10% SDS-PAGE and transferred to polyvinylidene fluoride (PVDF) membrane. The membrane was blotted with antibodies against p-STAT3, total-STAT3, caspase9 and GAPDH, and then examined by ECL detection system according to the manufacturer's instructions (Amersham Pharmacia Biotech).

STAT3 = experiment: Western blot of STAT3 phosphorylation in HepG2 cells; type: cell-based; conditions: Figure 6A
Method: as §1

[1] = target: T1, Farnesoid X Receptor (FXR) (Homo sapiens, UniProt Q96RI1); experiment: Yeast two-hybrid assay, hFXR agonist testing (FXR-LBD/SRC1 interaction, α-galactosidase); type: cell-based; conditions: DMSO = 1
T1 construct: Human FXRα-LBD (amino acids 200–473); expressed in transfected cells; host or cells: yeast strain AH109
T1 sequence (Q96RI1 214-486): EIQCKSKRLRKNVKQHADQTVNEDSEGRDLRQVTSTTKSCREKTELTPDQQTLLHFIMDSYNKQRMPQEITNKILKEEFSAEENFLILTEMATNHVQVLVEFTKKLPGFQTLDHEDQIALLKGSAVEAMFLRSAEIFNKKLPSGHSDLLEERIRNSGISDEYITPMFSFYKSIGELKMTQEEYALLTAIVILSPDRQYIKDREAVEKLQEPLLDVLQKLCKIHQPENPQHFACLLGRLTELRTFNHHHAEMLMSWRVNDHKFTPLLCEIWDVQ
Text: (§2) Yeast two-hybrid system is a powerful tool for identifying potential agonist or antagonist of nuclear receptor based on the protein-protein interaction between nuclear receptor and its transcriptional co-activator[34]. Based on the predicted results through our systems pharmacology approach, the yeast two-hybrid system was set up according to a previous study[35] to test whether NSAIDs can modulate the activation of FXR. A series of NSAIDs with diverse chemical structures were collected and experimentally evaluated for their effects on the interaction between FXR and its co-activator SRC1. […] The previous studies reported an immune-mediated mechanism that is related to liver toxicity induced by oxicams and coxibs.
(§3) The yeast expression plasmids pGADT7 and pGBKT7 were from Clontech (Palo Alto, CA). Human FXRα-LBD (amino acids 200–473) was subcloned into vector pGBKT-7 using NdeI and BamHI restrict enzyme sites. The primers used for PCR amplification were listed as follows: FXRα-LBD (sense) 5′-[…]-3′, (anti-sense) 5′-[…]-3′. The combination plasmid pGADT7-SRC1 was prepared as described previously. The luciferase reporter plasmid pGL3-FXRE-Luc was generously donated by Dr. Majlis Hermansson (AstraZeneca R&D Mölndal, Sweden).
(§4) A yeast two-hybrid system for FXRα was constructed by yeast co-transformation with pGBKT7-FXR LBD and pGADT7-SRC1 according to manufacturer's protocols. […] 24 h later, we harvested the yeast cells and analyzed α-galactosidase activity using p-nitrophenyl α-D-galactopyranoside as the substrate.

[2] = target: T1, Farnesoid X Receptor (FXR); experiment: Yeast two-hybrid assay, FXR antagonist testing (compounds plus 10 μM CDCA); type: cell-based; conditions: for IC50: hFXR-LBD/SRC1, determined if inhibition at 10 μM > 50%
Text: as §2, §3, §4

SHP = experiment: qRT-PCR of FXR target gene SHP in HepG2 cells
Method: The mRNA levels of the FXR target genes were quantified by qRT-PCR.
The data were carried out in at least three independent experiments.
HepG2 cells were cultured at 37°C in DMEM media supplemented with 10% FBS. And then cells were seeded into 6-well plates and grew to 80–90% confluence. After incubation with the test compounds for 24 h, cells were harvested and total RNA was isolated using Trizol reagent. The first single-strand cDNA was synthesized using reverse transcriptase kit. The qRT-PCR was performed using Bio-Rad CFX96^TM real time PCR system according to the manufacturer's instruction with specific primers for the FXR target gene SHP (forward 5′-[sequence]-3′, reverse 5′-[sequence]-3′), CYP7A1 (forward 5′- [sequence]-3′, reverse 5′- [sequence]-3′) for detection of the transcripts. Transcription levels were normalized to GAPDH mRNA levels (forward 5′- [sequence]-3′, reverse 5′- [sequence]-3′). The relative RNA quantities were calculated using the comparative threshold cycles (Ct) method. The Ct for the SHP, CYP7A1 and GAPDH signals were determined in triplicate experiments.

Row | Structure (SMILES) | FXR activation (10 μM) [1] | inhibition at 10 µM [2] [%] | IC50 ([2]; yeast two hybrid) [µM] | also measured
1 | C[C@H](CCC(=O)O)[C@H]1CC[C@H]2[C@@H]3[C@H](O)C[C@@H]4C[C@H](O)CC[C@]4(C)[C@H]3CC[C@]12C [CDCA, chenodeoxycholic acid] |  |  |  | caspase9 levels on co-treatment with indomethacin (caspase9; co-treated with indomethacin and CDCA): substantially attenuated back to the normal level; effect on indomethacin-induced STAT3 activation (STAT3; CDCA pretreatment): suppresses indomethacin-induced STAT3 activation
2 | O=C(O)c1cc(-c2ccc(F)cc2F)ccc1O [Diflunisal] | 1.31 | 93.3 | 8.48 | 
3 | COc1ccc2c(c1)c(CC(=O)O)c(C)n2C(=O)c1ccc(Cl)cc1 [Indomethacin] |  |  |  | caspase9 expression (caspase9; western blot): significantly stimulates caspase9 expression in a dose-dependent manner; STAT3 phosphorylation level (STAT3; western blot): significantly increases the STAT3 phosphorylation level; biological activity on genes SHP and CYP7A1 compared with ibuprofen (SHP): higher biological activity than ibuprofen
4 | CCCCC1C(=O)N(c2ccccc2)N(c2ccccc2)C1=O [Phenylbutazone] | 0.99 | 91.9 | 0.7 | FXR antagonist potency compared with guggulsterones (GS) ([2]; yeast two hybrid): more potent FXR antagonist than guggulsterones
5 | CN1C(C(=O)Nc2ccccn2)=C(O)c2ccccc2S1(=O)=O [Piroxicam] | 1.13 | 30.7 | > 25 | 
6 | CS(=O)(=O)c1ccc(C2=C(c3ccccc3)C(=O)OC2)cc1 [Rofecoxib] | 1.18 | 39.9 | > 25 | 
